What all share (format): functional
In one experiment the test system is SF-268. The experiment is described as follows: Growth inhibition of human SF-268 cells measured after 24 to 72 hrs by SRB method. As to conditions: time 24-72 hrs. A general note: The SRB assay estimates cell density from bound dye.
In another experiment the test system is SNB-19. In words: Growth inhibition of human SNB-19 cells measured after 24 to 72 hrs by SRB method. Particulars: time 24-72 hrs.
A further experiment relates to U-251. In words: Growth inhibition of human U-251 cells measured after 24 to 72 hrs by SRB method. As to conditions: time 24-72 hrs.
Another experiment deals with SF-295. The experiment is described as follows: Growth inhibition of human SF-295 cells measured after 24 to 72 hrs by SRB method. Particulars: time 24-72 hrs.
For the next experiment, the system named is SK-MEL-28. The experiment is described as follows: Growth inhibition of human SK-MEL-28 cells measured after 24 to 72 hrs by SRB method. Particulars: time 24-72 hrs.
Another experiment has as its system MDA-MB-435. The experiment is described as follows: Growth inhibition of human MDA-MB-435 cells measured after 24 to 72 hrs by SRB method. As to conditions: time 24-72 hrs.
Another experiment deals with DU-145. In words: Growth inhibition of human DU-145 cells measured after 24 to 72 hrs by SRB method. Particulars: time 24-72 hrs.
A further experiment concerns PC-3. The experiment is described as follows: Growth inhibition of human PC-3 cells measured after 24 to 72 hrs by SRB method. As to conditions: time 24-72 hrs.
The next experiment has as its system HOP-62. In words: Antiproliferative activity against human HOP-62 cells assessed as inhibition of cell growth at 10 uM measured after 24 to 72 hrs by SRB method relative to control. Particulars: time 24-72 hrs.
In another experiment the test system is SR. The experiment is described as follows: Antiproliferative activity against human SR cells assessed as inhibition of cell growth at 10 uM by measured after 24 to 72 hrs SRB method relative to control. Particulars: time 24-72 hrs.
The next experiment concerns MOLT-4. In words: Antiproliferative activity against human MOLT-4 cells assessed as inhibition of cell growth at 10 uM measured after 24 to 72 hrs by SRB method relative to control. As to conditions: time 24-72 hrs.
Another experiment relates to NCI-H522. In words: Antiproliferative activity against human NCI-H522 cells assessed as inhibition of cell growth at 10 uM measured after 24 to 72 hrs by SRB method relative to control. As to conditions: time 24-72 hrs.
The next experiment relates to K562. The experiment is described as follows: Antiproliferative activity against human K562 cells assessed as inhibition of cell growth at 10 uM measured after 24 to 72 hrs by SRB method relative to control. Particulars: time 24-72 hrs.
A further experiment has as its system NCI-H23. In words: cells. As to conditions: Homo sapiens, time 24-72 hrs.
The subject of a further experiment is EKVX. In words: cells. As to conditions: Homo sapiens, time 24-72 hrs.
The subject of a further experiment is HOP-92. The experiment is described as follows: cells. Particulars: Homo sapiens, time 24-72 hrs.
The subject of another experiment is NCI-H322M. The experiment is described as follows: Antiproliferative activity against human NCI-H322M cells assessed as inhibition of cell growth at 10 uM measured after 24 to 72 hrs by SRB method relative to control. Particulars: time 24-72 hrs.
The subject of the next experiment is CCRF-CEM. In words: Antiproliferative activity against human CCRF-CEM cells assessed as inhibition of cell growth at 10 uM measured after 24 to 72 hrs by SRB method relative to control. Particulars: time 24-72 hrs.
Another experiment concerns RPMI-8226. The experiment is described as follows: Antiproliferative activity against human RPMI-8226 cells assessed as inhibition of cell growth at 10 uM measured after 24 to 72 hrs by SRB method relative to control. Particulars: time 24-72 hrs.
The subject of the next experiment is HL-60. In words: Antiproliferative activity against human HL-60 cells assessed as inhibition of cell growth at 10 uM measured after 24 to 72 hrs by SRB method relative to control. As to conditions: time 24-72 hrs.
The subject of the next experiment is NCI-H226. The experiment is described as follows: cells. As to conditions: Homo sapiens, time 24-72 hrs.
In another experiment the test system is NCI-H460. The experiment is described as follows: cells. As to conditions: Homo sapiens, time 24-72 hrs.
In another experiment the test system is A549. In words: cells. Particulars: Homo sapiens, time 24-72 hrs.

Description for A549: Antiproliferative activity against human A549 cells assessed as inhibition of cell growth at 10 uM measured after 24 to 72 hrs by SRB method relative to control
Description for EKVX: Antiproliferative activity against human EKVX cells assessed as inhibition of cell growth at 10 uM measured after 24 to 72 hrs by SRB method relative to control
Description for HOP-92: Antiproliferative activity against human HOP-92 cells assessed as inhibition of cell growth at 10 uM measured after 24 to 72 hrs by SRB method relative to control
Description for NCI-H226: Antiproliferative activity against human NCI-H226 cells assessed as inhibition of cell growth at 10 uM measured after 24 to 72 hrs by SRB method relative to control
Description for NCI-H23: Antiproliferative activity against human NCI-H23 cells assessed as inhibition of cell growth at 10 uM measured after 24 to 72 hrs by SRB method relative to control
Description for NCI-H460: Antiproliferative activity against human NCI-H460 cells assessed as inhibition of cell growth at 10 uM measured after 24 to 72 hrs by SRB method relative to control

A word on the GI50: it is the concentration that inhibits growth by half. Higher therefore signals lower sensitivity of the cells. As for `Cn1nnc2c(C(N)=O)ncn2c1=O` [TEMOZOLOMIDE], the GI50 in the experiment with SF-268, in the experiment with SNB-19, in the experiment on U-251 and in the experiment with SF-295 was over 100 µM throughout.
Consider `CN(C)/N=N/c1[nH]cnc1C(N)=O` [DACARBAZINE], for which the GI50 with SK-MEL-28 was over 100 µM; in the experiment on MDA-MB-435 it was 84.3 µM.
`CNC(=O)c1ccc(N2C(=S)N(c3ccc(C#N)c(C(F)(F)F)c3)C(=O)C2(C)C)cc1F` [ENZALUTAMIDE]: the figures for the 50% growth inhibitory concentration (GI50) in the experiment with DU-145 and in the experiment on PC-3 were over 31 µM and 22 µM, respectively.
Usually inhibition stands for the change of the read-out against control, counted positive when it falls. With `COc1ccc(C(=O)Nc2cccc(C3CCc4c(cc(OC)c(OC)c4OC)O3)c2)cc1` (stereo not drawn), the inhibition at 10 µM in the experiment on HOP-62 is 60.2%; with SR, over 60%; in the experiment on MOLT-4 it was over 60%; in the experiment with NCI-H522, 57.3%; in the experiment on K562, over 60%; in the experiment on NCI-H23 it was 41.1%. In addition, the inhibition at 10 µM with EKVX was 45.3%; with HOP-92, 38.7%; in the experiment on NCI-H322M, 24.1%; with CCRF-CEM, over 60%; in the experiment with RPMI-8226, over 60%; in the experiment on HL-60, over 60%. The inhibition at 10 µM in the experiment on NCI-H226 is 69.9%; with NCI-H460 it was 74.3%; with A549, 56.6%.
Turning to `COc1ccccc1C(=O)Nc1cccc(C2CCc3c(cc(OC)c(OC)c3OC)O2)c1` (stereo not drawn), the inhibition at 10 µM with HOP-62 is 4.59%; in the experiment with NCI-H522, 19.7%; in the experiment with NCI-H23, 0.42%; in the experiment with EKVX, 2.25%; in the experiment on HOP-92 it was 4.05%; in the experiment on NCI-H322M, 3.14%. Further, the results for the inhibition at 10 µM in the experiment on NCI-H226, in the experiment with NCI-H460 and in the experiment with A549 were 8.5%, 2.38% and 11.7%, respectively.
Take `COc1cc2c(c(OC)c1OC)CCC(c1cccc(NC(=O)c3ccc([N+](=O)[O-])cc3)c1)O2` (stereo not drawn): the inhibition at 10 µM with HOP-62 was 7.28%; in the experiment with NCI-H522, 32.5%; in the experiment with NCI-H23 it was 34.2%; with EKVX, 35.4%; with HOP-92, 15.7%; in the experiment with NCI-H322M it was 11%. Besides, the inhibition at 10 µM with NCI-H226 is 50.7%; with NCI-H460 it was 29%; in the experiment on A549 it was 32.2%.
Regarding `COc1cc2c(c(OC)c1OC)CCC(c1cccc(NC(=O)c3cccc(Cl)c3)c1)O2` (stereo not drawn), the inhibition at 10 µM in the experiment with HOP-62 came to 7.17%; in the experiment on NCI-H522, 37.9%; in the experiment on NCI-H23, 7.27%; with EKVX it was 14.1%; in the experiment with HOP-92, 16.9%; with NCI-H322M it was 9.74%. Besides, the inhibition at 10 µM with NCI-H226 stood at 20.2%; in the experiment on NCI-H460 it was 3.06%; in the experiment with A549 it was 15%.
Regarding `COc1cccc(C(=O)Nc2cccc(C3CCc4c(cc(OC)c(OC)c4OC)O3)c2)c1` (stereo not drawn), the inhibition at 10 µM amounted to 8.46% in the experiment with HOP-62; 33.5% in the experiment on NCI-H522; 10.2% with NCI-H23; 15.2% with EKVX; 13% with HOP-92; 18.6% in the experiment on NCI-H322M. In addition, the inhibition at 10 µM in the experiment on NCI-H226 amounted to 24%; in the experiment with NCI-H460, 4.3%; in the experiment with A549, 22.1%.
As for `COc1cc2c(c(OC)c1OC)CCC(c1cccc(C(=O)Nc3cccc(Br)c3)c1)O2` (stereo not drawn), the inhibition at 10 µM in the experiment on HOP-62 stood at 3.19%; in the experiment with NCI-H522 it was 51.2%; in the experiment with NCI-H23, 22.5%; with EKVX, 49.6%; in the experiment on HOP-92 it was 93.8%; with NCI-H322M it was 49.1%. Also, the inhibition at 10 µM in the experiment on NCI-H226 came to 30.1%; in the experiment on NCI-H460 it was 29.5%; with A549 it was 35.5%.
